Among the data in patent publication US20260151517A1, “SOMATOSTATIN RECEPTOR-TARGETING RADIOPHARMACEUTICALS AND USES THEREOF” (Nuclidium AG, priority 2024, published 2026) are tissue to tissue ratio values, retold here.

*1 amine or outer side, *2 acyl side, *3 side chain or, on linkers, in order; H or OH if unused. Where a SMILES comes first, the peptide text is derived from it. Bridges are numbered along the chain shown (N, C = ends). [ ]: non-standard residue; d: D form. The star is where a group is joined. NODAGA = O=C(O)CN1CCN(CC(=O)O)CCN(C(CCC(=O)*)C(=O)O)CC1; X1 = NC(=O)Nc1ccc(CC(N[*:1])C(=O)[*:2])cc1; Phe(4-Cl) = N[CH](Cc1ccc(Cl)cc1)C(=O)O

The nature of this data set: in vivo. Set-up: species or system mice. The following applies: athymic nude Foxn1^nu, mouse, iv, 13 MBq, total radioactivity. The method, then: Dynamic PET scans were acquired for 1 hour post-injection of the investigated radiopharmaceutical. The mice were euthanized using carbon dioxide at 4 hours post-injection, the bladder was mechanically emptied, and static PET scans were acquired for 30 min. PET images were obtained using the β-CUBE PET scanner system (MOLECUBES) and were decay corrected and reconstructed with the VivoQuant software version 4.0. Tomograms and helical CT scans of the whole mouse were first acquired using a NanoSPECT/CTTM scanner (Bioscan Inc.). CT images were reconstructed using CTReco (version r1.146), resulting in a pixel size of 0.2 mm. InVivoScope (version 1.43, Bioscan Inc.) software was used to generate the maximum intensity projection (MIP) of the co-registered PET/CT images presented in FIG. 10.

As to `CC(O)C1NC(=O)C(CCCCN)NC(=O)C(Cc2ccc(NC(N)=O)cc2)NC(=O)C(Cc2ccc(O)cc2)NC(=O)C(NC(=O)C(Cc2ccc(Cl)cc2)NC(=O)CCC(C(=O)O)N2CCN(CC(=O)O)CCN(CC(=O)O)CC2)CSSCC(C(=O)NC(Cc2ccc(O)cc2)C(N)=O)NC1=O` (stereo not shown) [[^61Cu]Cu-NODAGA-LM3, metal not drawn] ({NODAGA}-[Phe(4-Cl)]CY[X1]KTCY-NH2; disulfide 2-7; configuration not given here), the tissue to tissue ratio worked out at 4.
